Assays:
[1] = Cytotoxicity against human MCF10A cells assessed as reduction in cell viability after 48 hrs by MTT assay; assay type: toxicity, cell-based, MCF-10A
[2] = Cytotoxicity against human WI38 cells assessed as reduction in cell viability after 48 hrs by MTT assay; assay type: toxicity, cell-based, WI-38
[3] = Cytotoxicity against human MDA-MB-231 cells assessed as reduction in cell viability after 48 hrs by MTT assay; assay type: functional, cell-based; conditions: MDA-MB-231, 48 h
[4] = Cytotoxicity against human SKOV3 cells assessed as reduction in cell viability after 48 hrs by MTT assay; assay type: functional, cell-based; conditions: SK-OV-3, 48 h
[5] = Cytotoxicity against human HCT116 cells assessed as reduction in cell viability after 48 hrs by MTT assay; assay type: functional, cell-based; conditions: HCT-116, 48 h

| SMILES | IC50 at 48 h [1] | IC50 at 48 h [2] | IC50 [3] | IC50 [4] | IC50 [5] |
| --- | --- | --- | --- | --- | --- |
| O=C(/C=C/c1ccc2c(c1)B(O)OC2)c1ccc2c(c1)OCCO2 | 11.7 µM | 30.2 µM | 7.9 µM | 7.3 µM | 10.3 µM |
| COc1ccccc1C(=O)/C=C/c1ccc2c(c1)B(O)OC2 | 9.1 µM | 21.7 µM | 3.1 µM | 2.6 µM | 5 µM |
| COc1cccc(C(=O)/C=C/c2ccc3c(c2)B(O)OC3)c1 | 7.4 µM | 14.6 µM | 2.1 µM | 2.6 µM | 5 µM |
| Nc1ccc(C(=O)/C=C/c2ccc3c(c2)B(O)OC3)cc1 | 19.9 µM | 25.4 µM | 25.8 µM | 20.2 µM | 26.1 µM |
| O=C(/C=C/c1ccc2c(c1)B(O)OC2)c1ccc(OCc2ccccc2)cc1 | 23.3 µM | > 100 µM | 5.3 µM | 6 µM | 12.1 µM |
| O=C(/C=C/c1ccc2c(c1)B(O)OC2)c1ccc(Cl)cc1 | 12.1 µM | 24.7 µM | 7.9 µM | 3.7 µM | 9.3 µM |
| COc1cc(C(=O)/C=C/c2ccc3c(c2)B(O)OC3)cc(OC)c1OC | 48.5 µM | 18.5 µM | 10.6 µM | 5.7 µM | 7.9 µM |
| COc1ccc(C(=O)/C=C/c2ccc3c(c2)B(O)OC3)cc1OC | 13.5 µM | 33.5 µM | 13.2 µM | 4.8 µM | 12.2 µM |
| COc1cc(C(=O)/C=C/c2ccc3c(c2)B(O)OC3)ccc1N | 17.6 µM | > 100 µM | 24.3 µM | 1.7 µM | 27.9 µM |
| O=C(/C=C/c1ccc2c(c1)B(O)OC2)c1ccc(Cl)c(Cl)c1 | 14.9 µM | 12.5 µM | 3.4 µM | 1.8 µM | 3.2 µM |
| O=C(/C=C/c1ccc2c(c1)B(O)OC2)c1ccc(C(F)(F)F)cc1 | 22.3 µM | 22.6 µM | 9.2 µM | 3.7 µM | 6.3 µM |
| COCOc1cccc(C(=O)/C=C/c2ccc3c(c2)B(O)OC3)c1 | 48.1 µM | 33.2 µM | 4.5 µM | 11.7 µM | 13.3 µM |
| O=C(/C=C/c1ccc2c(c1)B(O)OC2)c1ccc(O)c(O)c1 | > 100 µM | > 100 µM | 67.6 µM | > 100 µM | > 100 µM |
| O=C(/C=C/c1ccc2c(c1)B(O)OC2)c1cccc2ccccc12 | 13.4 µM | 18.8 µM | 3.6 µM | 2.7 µM | 5 µM |
| O=C(/C=C/c1ccc2c(c1)B(O)OC2)c1cccc(F)c1 | 15.8 µM | 26.7 µM | 3 µM | 4.8 µM | 6.7 µM |
| COCOc1ccccc1C(=O)/C=C/c1ccc2c(c1)B(O)OC2 | 11.7 µM | 27 µM | 10.2 µM | 6.5 µM | 10.2 µM |
| O=C(/C=C/c1ccc2c(c1)B(O)OC2)c1ccc(O)cc1 | 24.8 µM | > 100 µM | 25.6 µM | 13 µM | 24.1 µM |
| CSc1ccc(C(=O)/C=C/c2ccc3c(c2)B(O)OC3)cc1 | 7.4 µM | 54.3 µM | 9.8 µM | 4.1 µM | 10.3 µM |
| O=C(/C=C/c1ccc2c(c1)B(O)OC2)c1ccc(Br)cc1 | 27.8 µM | 36.7 µM | 9.5 µM | 4.5 µM | 9.9 µM |

| SMILES | IC50 at 48 h [1] | IC50 at 48 h [2] | IC50 [3] | IC50 [4] | IC50 [5] |
| --- | --- | --- | --- | --- | --- |
| Cc1cccc(C(=O)/C=C/c2ccc3c(c2)B(O)OC3)c1 | 15.9 µM | 16.7 µM | 4.5 µM | 2.9 µM | 6.7 µM |
| O=C(/C=C/c1ccc2c(c1)B(O)OC2)c1ccc([N+](=O)[O-])cc1 | 17.5 µM | 39.3 µM | 11.2 µM | 7.9 µM | 9.1 µM |
| CCc1ccc(C(=O)/C=C/c2ccc3c(c2)B(O)OC3)cc1 | 8.8 µM | 20.6 µM | 9.8 µM | 4.4 µM | 10.9 µM |
| CCOC(=O)c1ccc(C(=O)/C=C/c2ccc3c(c2)B(O)OC3)cc1 | 12.9 µM | 47.2 µM | 13 µM | 7.1 µM | 7.6 µM |
| O=C(/C=C/c1ccc2c(c1)B(O)OC2)c1cccs1 | 13.8 µM | 26 µM | 4.6 µM | 10.4 µM | 14.2 µM |
| O=C(/C=C/c1ccc2c(c1)B(O)OC2)c1ccccc1O | 53.7 µM | > 100 µM | 16.9 µM | 48.8 µM | 77.9 µM |
| Cc1ccc(C(=O)/C=C/c2ccc3c(c2)B(O)OC3)cc1C | 4.7 µM | 22 µM | 5.3 µM | 1.9 µM | 6.1 µM |
| Cn1cccc1C(=O)/C=C/c1ccc2c(c1)B(O)OC2 | > 100 µM | > 100 µM | > 100 µM | 93.6 µM | > 100 µM |
| O=C(/C=C/c1ccc2c(c1)B(O)OC2)c1ccc(F)cc1 | 11.8 µM | 7.6 µM | 1.6 µM | 1.4 µM | 2.8 µM |
| O=C(/C=C/c1ccc2c(c1)B(O)OC2)c1ccco1 | 7.4 µM | 59 µM | 7.3 µM | 20.7 µM | 24.1 µM |
| O=C(/C=C/c1ccc2c(c1)B(O)OC2)c1ccc(-c2ccccc2)cc1 | 20.7 µM | 18.3 µM | 6.4 µM | 4.9 µM | 9.5 µM |
| O=C(/C=C/c1ccc2c(c1)B(O)OC2)c1cccnc1 | 34.4 µM | 76.2 µM | 11.4 µM | 18.5 µM | 20.5 µM |
| COc1cccc2c1C(=O)c1c(O)c3c(c(O)c1C2=O)C[C@@](O)(C(=O)CO)C[C@@H]3O[C@H]1C[C@H](N)[C@H](O)[C@H](C)O1 [DOXORUBICIN] | 0.06 µM | 9 µM | – | 0.42 µM | 0.31 µM |
| O=C(O)c1ccc(C(=O)/C=C/c2ccc3c(c2)B(O)OC3)cc1 | > 100 µM | > 100 µM | > 100 µM | > 100 µM | > 100 µM |
| Nc1cccc(C(=O)/C=C/c2ccc3c(c2)B(O)OC3)c1 | 19.6 µM | 25.3 µM | 3.2 µM | 7.4 µM | 4.5 µM |
| COc1ccc(C(=O)/C=C/c2ccc3c(c2)B(O)OC3)c(OC)c1 | 12.2 µM | 86.3 µM | 11.2 µM | 6.1 µM | 16.2 µM |
| O=C(/C=C/c1ccc2c(c1)B(O)OC2)c1cccc(O)c1 | 25.3 µM | 26.4 µM | 2.7 µM | 3.8 µM | 6.5 µM |
| Cc1ccc(C(=O)/C=C/c2ccc3c(c2)B(O)OC3)cc1 | 8.3 µM | 22.2 µM | 6.5 µM | 3.7 µM | 10.5 µM |
| O=C(/C=C/c1ccc2c(c1)B(O)OC2)c1ccccc1F | 25.4 µM | 23.6 µM | 2.2 µM | 3.7 µM | 4.2 µM |
